# According to patent publication EP0551200A1, “Protein phosphatase inhibitors for use in therapy” (priority 1992, dated 1993):
# Tested on: 27 hsp complex
# Test: Phosphorylation of the 27 hsp complex in the cytosolic fraction of 32P-labeled fibroblasts
# Format: cell-based, human
# Experimental: Human fibroblasts prelabeled with [³²P]orthophosphate (1 mCi/ml) were incubated with increasing concentrations of OA or TNF. Cytosolic fractions were prepared from the cells and subjected to two-dimensional gel electrophoresis. a, control; b, 80 nM OA; c, 160 nM OA; d, 50 units/ml TNF; and e, 320 nM OA.
# The fibroblasts were treated with 200 nM of okadaic acid for 0 min (a), 5 min (b), 15 min (c), or 30 min (d). Cytosolic fractions were prepared from the fibroblasts and analyzed by two-dimensional gel electrophoresis.
# Radiolabeling of Cells and Cell Lysis - For labeling with [³²P]orthophosphate cells were plated onto 90 mm plastic tissue culture dishes and incubated for 3 days for the cells to become confluent. […]
# Two-dimensional Gel Electrophoresis - The lyophilized fractions (each of approximately 12 µg) were subjected to isoelectric focusing for 18,000 V/h with pH 3-10 ampholytes using the Millipore Investigator two-dimensional electrophoresis system (Millipore). […] Molecular weight marker proteins from Sigma were detected by Coomassie Blue staining and marked on the autoradiogram. ³²P-Labeled 27 hsp complex prepared from human fibroblasts heat shocked at 43°C for 30 min was also used as a marker. […]
structure (smiles),measurement,setting,value
C=C1[C@@H](O)[C@@H]2O[C@]3(CC[C@H](/C=C/[C@@H](C)[C@@H]4CC(C)=C[C@@]5(O[C@H](C[C@@](C)(O)C(=O)O)CC[C@H]5O)O4)O3)CC[C@H]2O[C@@H]1[C@@H](O)C[C@H](C)[C@H]1O[C@@]2(CCCCO2)CC[C@H]1C [okadaic acid],phosphorylation state of the 27 hsp complex (in words),"200 nM, after 30 min",hyperphosphorylated
same,concentration producing about the same increase in phosphorylation of the 27 hsp complex as 50 units/ml of TNF,15 min,160 to 320 nM
